In the CheMixHub ionic liquid set:

Assay: xn = mol fraction of the nth substance listed
Conditions: 308.15 K, 101 kPa

CCCCCCCCCCCCCCCC[n+]1ccccc1.[Cl-] + C[C@@H](O)[C@H](N)C(=O)O + O
Conditions | electrical conductivity [S/m]
x2 = 0, x1 = 5.4e-07 | 0.000222
x2 = 0, x1 = 9e-07 | 0.00029
x2 = 0, x1 = 1.62e-06 | 0.0004
x2 = 0, x1 = 2.34e-06 | 0.000465
x2 = 0, x1 = 2.88e-06 | 0.000581
x2 = 0, x1 = 3.78e-06 | 0.000705
x2 = 0, x1 = 4.5e-06 | 0.000794
x2 = 0, x1 = 5.59e-06 | 0.000937
x2 = 0, x1 = 6.85e-06 | 0.00106
x2 = 0, x1 = 7.93e-06 | 0.001222
x2 = 0, x1 = 9.01e-06 | 0.001438
x2 = 0, x1 = 1.009e-05 | 0.00159
x2 = 0, x1 = 1.117e-05 | 0.001701
x2 = 0, x1 = 1.442e-05 | 0.00209
x2 = 0, x1 = 1.55e-05 | 0.00219
x2 = 0, x1 = 1.766e-05 | 0.00237
x2 = 0, x1 = 1.982e-05 | 0.00248
x2 = 0, x1 = 2.18e-05 | 0.00259
x2 = 0, x1 = 2.397e-05 | 0.00264
x2 = 0, x1 = 2.595e-05 | 0.00278
x2 = 0, x1 = 2.991e-05 | 0.00297
x2 = 0, x1 = 3.406e-05 | 0.00314
x2 = 0, x1 = 3.784e-05 | 0.00328
x2 = 0, x1 = 4.162e-05 | 0.00342
x2 = 0, x1 = 4.541e-05 | 0.00356
x2 = 0, x1 = 4.919e-05 | 0.00369
x2 = 0, x1 = 5.099e-05 | 0.00375
x2 = 0, x1 = 5.982e-05 | 0.00403
x2 = 0, x1 = 6.829e-05 | 0.00432
x2 = 0, x1 = 7.64e-05 | 0.00454
x2 = 0, x1 = 8.415e-05 | 0.00477
x2 = 0, x1 = 9.171e-05 | 0.00497
x2 = 0, x1 = 9.892e-05 | 0.00516
x2 = 0, x1 = 0.0001058 | 0.00533
x2 = 0, x1 = 0.0001124 | 0.0055
x2 = 0, x1 = 0.0001189 | 0.00565
x2 = 2.018e-05, x1 = 5.4e-07 | 0.000282
x2 = 2.018e-05, x1 = 9e-07 | 0.00035
x2 = 2.018e-05, x1 = 1.62e-06 | 0.000431
x2 = 2.018e-05, x1 = 2.34e-06 | 0.000514
x2 = 2.018e-05, x1 = 2.88e-06 | 0.000652
x2 = 2.018e-05, x1 = 3.78e-06 | 0.000768
x2 = 2.018e-05, x1 = 4.51e-06 | 0.00084
x2 = 2.018e-05, x1 = 5.59e-06 | 0.001003
x2 = 2.018e-05, x1 = 6.67e-06 | 0.00115
x2 = 2.018e-05, x1 = 7.93e-06 | 0.00127
x2 = 2.018e-05, x1 = 9.01e-06 | 0.00139
x2 = 2.018e-05, x1 = 1.009e-05 | 0.001517
x2 = 2.018e-05, x1 = 1.117e-05 | 0.00165
x2 = 2.018e-05, x1 = 1.334e-05 | 0.00188
x2 = 2.018e-05, x1 = 1.55e-05 | 0.00214
x2 = 2.018e-05, x1 = 1.766e-05 | 0.0023
x2 = 2.018e-05, x1 = 1.964e-05 | 0.00249
x2 = 2.018e-05, x1 = 2.181e-05 | 0.00259
x2 = 2.018e-05, x1 = 2.379e-05 | 0.00271
x2 = 2.018e-05, x1 = 2.595e-05 | 0.00282
x2 = 2.018e-05, x1 = 2.992e-05 | 0.00299
x2 = 2.018e-05, x1 = 3.388e-05 | 0.00317
x2 = 2.018e-05, x1 = 3.766e-05 | 0.00332
x2 = 2.018e-05, x1 = 4.163e-05 | 0.00348
x2 = 2.018e-05, x1 = 4.523e-05 | 0.00361
x2 = 2.018e-05, x1 = 4.902e-05 | 0.00375
x2 = 2.018e-05, x1 = 5.082e-05 | 0.00383
x2 = 2.018e-05, x1 = 5.965e-05 | 0.00411
x2 = 2.018e-05, x1 = 6.812e-05 | 0.00438
x2 = 2.018e-05, x1 = 7.623e-05 | 0.0046
x2 = 2.018e-05, x1 = 8.398e-05 | 0.00483
x2 = 2.018e-05, x1 = 9.136e-05 | 0.00502
x2 = 2.018e-05, x1 = 9.857e-05 | 0.0052
x2 = 2.018e-05, x1 = 0.0001054 | 0.00538
x2 = 2.018e-05, x1 = 0.0001121 | 0.00553
x2 = 2.018e-05, x1 = 0.0001186 | 0.00568
x2 = 0.0002, x1 = 5.4e-07 | 0.000209
x2 = 0.0002, x1 = 9e-07 | 0.000279
x2 = 0.0002, x1 = 1.62e-06 | 0.000384
x2 = 0.0002, x1 = 2.35e-06 | 0.000481
x2 = 0.0002, x1 = 2.89e-06 | 0.000615
x2 = 0.0002, x1 = 3.79e-06 | 0.000744
x2 = 0.0002, x1 = 4.51e-06 | 0.000835
x2 = 0.0002, x1 = 5.59e-06 | 0.000986
x2 = 0.0002, x1 = 6.67e-06 | 0.001137
x2 = 0.0002, x1 = 7.94e-06 | 0.00127
x2 = 0.0002, x1 = 9.02e-06 | 0.001403
x2 = 0.0002, x1 = 1.01e-05 | 0.00155
x2 = 0.0002, x1 = 1.118e-05 | 0.00168
x2 = 0.0002, x1 = 1.335e-05 | 0.00196
x2 = 0.0002, x1 = 1.551e-05 | 0.00219
x2 = 0.0002, x1 = 1.75e-05 | 0.00237
x2 = 0.0002, x1 = 1.966e-05 | 0.00251
x2 = 0.0002, x1 = 2.183e-05 | 0.00264
x2 = 0.0002, x1 = 2.381e-05 | 0.00275
x2 = 0.0002, x1 = 2.58e-05 | 0.00286
x2 = 0.0002, x1 = 2.995e-05 | 0.00304
x2 = 0.0002, x1 = 3.391e-05 | 0.00321
x2 = 0.0002, x1 = 3.77e-05 | 0.00335
x2 = 0.0002, x1 = 4.149e-05 | 0.0035
x2 = 0.0002, x1 = 4.528e-05 | 0.00364
x2 = 0.0002, x1 = 4.889e-05 | 0.00376
x2 = 0.0002, x1 = 5.069e-05 | 0.00382
x2 = 0.0002, x1 = 5.953e-05 | 0.0041
x2 = 0.0002, x1 = 6.801e-05 | 0.00437
x2 = 0.0002, x1 = 7.612e-05 | 0.00458
x2 = 0.0002, x1 = 8.388e-05 | 0.00481
x2 = 0.0002, x1 = 9.146e-05 | 0.00499
x2 = 0.0002, x1 = 9.849e-05 | 0.00517
x2 = 0.0002, x1 = 0.0001055 | 0.00533
x2 = 0.0002, x1 = 0.000112 | 0.0055
x2 = 0.0002, x1 = 0.0001185 | 0.00565
x2 = 0.0009181, x1 = 2.391e-05 | 0.00276
x2 = 0.0009181, x1 = 2.608e-05 | 0.00285
x2 = 0.0009181, x1 = 3.007e-05 | 0.00304
x2 = 0.0009181, x1 = 3.405e-05 | 0.0032
x2 = 0.0009181, x1 = 3.804e-05 | 0.00337
x2 = 0.0009181, x1 = 4.184e-05 | 0.00351
x2 = 0.0009181, x1 = 4.564e-05 | 0.00365
x2 = 0.0009181, x1 = 4.926e-05 | 0.00379
x2 = 0.0009181, x1 = 5.108e-05 | 0.00385
x2 = 0.0009181, x1 = 5.995e-05 | 0.00413
x2 = 0.0009181, x1 = 6.846e-05 | 0.00439
x2 = 0.0009181, x1 = 7.661e-05 | 0.00463
x2 = 0.0009181, x1 = 8.44e-05 | 0.00485
x2 = 0.0009181, x1 = 9.2e-05 | 0.00505
x2 = 0.0009181, x1 = 9.907e-05 | 0.00523
x2 = 0.0009181, x1 = 0.0001061 | 0.0054
x2 = 0.0009181, x1 = 0.0001128 | 0.00556
x2 = 0.0009181, x1 = 0.0001192 | 0.00571
x2 = 0.0009182, x1 = 5.4e-07 | 0.000316
x2 = 0.0009182, x1 = 9.1e-07 | 0.000383
x2 = 0.0009182, x1 = 1.63e-06 | 0.00045
x2 = 0.0009182, x1 = 2.35e-06 | 0.000543
x2 = 0.0009182, x1 = 2.9e-06 | 0.000651
x2 = 0.0009182, x1 = 3.8e-06 | 0.000745
x2 = 0.0009182, x1 = 4.53e-06 | 0.000847
x2 = 0.0009182, x1 = 5.61e-06 | 0.00102
x2 = 0.0009182, x1 = 6.88e-06 | 0.001307
x2 = 0.0009182, x1 = 7.97e-06 | 0.001432
x2 = 0.0009182, x1 = 9.06e-06 | 0.00156
x2 = 0.0009182, x1 = 1.014e-05 | 0.00169
x2 = 0.0009182, x1 = 1.123e-05 | 0.001816
x2 = 0.0009182, x1 = 1.34e-05 | 0.00202
x2 = 0.0009182, x1 = 1.558e-05 | 0.00226
x2 = 0.0009182, x1 = 1.775e-05 | 0.0024
x2 = 0.0009182, x1 = 1.974e-05 | 0.00254
x2 = 0.0009182, x1 = 2.192e-05 | 0.00266
